Assay [1] relates to phosphorylated tau (p-Tau s262). Put plainly: Western blotting of phosphorylated tau (p-Tau s262) in rotenone mice. Conditions: Example 124-rotenone-treated group vs rotenone-vehicle group; not significantly; FIG. 4. In kind it is in vivo, C57BL/6 mice. The method, then:
(§1) Mice were randomly divided into four groups: • Group 1: vehicle control mice, • Group 2: Compound of Example 124—treated mice, • Group 3: rotenone treated mice, • Group 4: Compound of Example 124—rotenone treated mice.
(§2) Rotenone was suspended in 0.5% Carboxymethyl cellulose (CMC) sodium salt. Compound of Example 124 were dissolved in Tween 80. 0.5% CMC and Rotenone (30 mg/kg) were administered orally, the compound of Example 124 (40 mg/kg) was injected intraperitoneally (IP) once a day for 35 days (5 weeks).
(§3) Whole ventral midbrain was homogenized with RIPA buffer containing 1% Triton X 100, 0.5% deoxycholic acid, 0.2% SDS, 150 mM NaCl, 2 mM EDTA, protease inhibitors (PMSF, Aprotinin, NaF, Na3VO4). The homogenate was centrifuged at 13,000 rpm for 30 min on a rotator and the supernatant was used [Vergara, C., et al., Amyloid-beta pathology enhances pathological fibrillary tau seeding induced by Alzheimer PHF in vivo. Acta Neuropathol, 2019. 137(3): p. 397-412.]. Proteins were separated using SDS-PAGE with a concentration gradient of 8-20% SDS gels and transferred onto PVDF membranes (Immobilon P membrane, Millipore). Membranes blocked in 5% skim milk in TBST (Tris-Buffered saline-Tween®20) and immunolabeled with primary antibody, rabbit anti-tyrosine hydroxylase (TH) antibody (1:5000)). […]
(§4) Western blot data were analyzed using a t-test(1-tailed t-test). […]
Background: Immunoblotting shows a protein as a band on a membrane.

In assay [2] the test system is Tyrosine hydroxylase (TH). Put plainly: Western blotting of tyrosine hydroxylase (TH) in ventral midbrain protein of rotenone mice. The assay is classed as in vivo, C57BL/6 mice. Conditions: rotenone 30 mg/kg orally, Example 124 40 mg/kg IP once a day for 35 days, FIG. 3(C-D). The method, then:
as §1, §2, §3, §4

In assay [3] the test system is Acetylated alpha-tubulin (Ace-α-tubulin). Put plainly: Western blotting of acetylated alpha-tubulin in rotenone mice. In kind it is in vivo, C57BL/6 mice. Particulars: Example 124-rotenone-treated group; differences between groups not significant; FIG. 4. The method, then:
as §1, §2, §3, §4

The test system of assay [4] is Amyloid-beta (Aβ). Put plainly: Immunofluorescence of amyloid-beta in primary cultured cortical neurons. The assay is classed as cell-based. Particulars: primary cortical neurons treated with amyloid-beta and Example 124 (4 uM) together; FIG. 8. The method, then: Primary cortical neurons were harvested from the E12-14 embryo. Briefly, isolated cortices were incubated for 20 min at 37° C. in HBSS with 0.25% trypsin-EDTA, 0.1% DNase I. The cortices were dissociated by trituration in NBA media (Neurobasal medium with 2% B27, 2 mM 1-glutamine, and 1% penicillin/streptomycin). Cells were plated in poly-D-lysine coated 24-well plates at 50,000 cells/well. After 3 days of culture, Amyloid-beta and compound of Example 124 (4 uM) were treated.
Cortical neurons were fixed for 15 min at room temperature with 4% paraformaldehyde and 4% sucrose in PBS solution. Fixed neurons were incubated with blocking buffer (3% goat serum, 3% BSA in PBS-T (0.15% Triton-X100)) for 30 min at room temperature. After labeling with a primary antibody, cells were incubated with Alexa Fluor 488- or 568-conjugated secondary antibody. Aβ (6e10, Covance, 1:3000) and NeuN (abl77487, Abcam, 1:2000) were used as primary antibody.

In another assay the test system is GFAP-positive astrocytes. Put plainly: GFAP immunohistochemistry, activation level of astrocytes in striatum of rotenone mice. In kind it is in vivo, C57BL/6 mice. Particulars: rotenone 30 mg/kg orally, Example 124 40 mg/kg IP once a day for 35 days, FIG. 6. The method, then: as §1, §2
(§5) Specifically, mice of Biological Experiment Example 1 were anesthetized with sevoflurane and perfused with PBS (phosphate-buffered saline). […]
(§6) To determine whether the compound of Example 124 affects regulating the activities of Rotenone-induced reactive astrocyte and microglia, in the present invention, obtained images of brain tissues stained with GFAP (Astrocyte marker) and Iba-1(microglia marker) antibodies. Through acquired images analyzed the activation level of astrocytes and microglia respectively by measuring fluorescent intensity. […]
(§7) All the images were taken using a fluorescence microscope (Leica DM LB2). […] The signal intensity of GFAP and Iba-1 was measured in the chosen fields of the equal area using Image J.

Another assay deals with Iba-1-positive microglia. Nature of the assay: Iba-1 immunohistochemistry, activation level of microglia in striatum of rotenone mice. The assay is classed as in vivo, C57BL/6 mice. The method, then: as §1, §2, §5, §6, §7
Assay [5] relates to Amyloid-beta (Aβ). Nature of the assay: Anti-Aβ staining of brain tissue sections (choroid plexus cells) of treated mice. The assay is classed as in vivo, C57BL/6 mice. Conditions: orally administered for 6 weeks; vs vehicle (30% PEG400) mice; FIG. 9. The method, then: Amyloid-beta (Aβ) is a substance that is naturally produced and degraded In Vivo. Therefore, in the present invention, it was attempted to determine whether Amyloid-beta production was reduced in the compound of Example 124-treated mice.
C57BL/6 mice were purchased from Samtako bio Korea Co. Ltd (Osan, Korea.) Mice were housed in the room which offers a 12 hours light/dark cycle with a temperature of 20˜22° C. All experiments and animal care were approved by the Institutional Animal Care and Use Committee of Chonnam National University (Korea).
Mice were divided into a vehicle mice group and a drug-treated group, and then the vehicle (30% PEG400) or compound of Example 124 was orally administered for 6 weeks.
Mice were anesthetized with sevoflurane and perfused with PBS. After perfusion, the right hemisphere brain was fixed with 4% paraformaldehyde for one day. The frozen brains were sectioned at 30 um thickness. The tissue sections were blocked with 3% Goat serum and 3% BSA in cold PBS-T (0.15% Tx-100) for 30 min. Sections were then stained using anti-Aβ (ab5078p, millipore) 1:3000 in PBS. After 3 days of primary antibody labeling, sections were incubated with an Alexa Fluor 568 conjugated secondary antibody for 1 day. For each mouse, 8-10 tissue sections were quantified, and the Aβ intensity was measure at 15 choroid plexus cells. The measurement was done using Image J software.

The test system of assay [6] is rotenone-induced Parkinson's disease model mice. Put plainly: Foot printing assay (stride length) in rotenone-induced Parkinson's disease model mice. In kind it is in vivo, C57BL/6 mice. Particulars: rotenone 30 mg/kg orally, Example 124 40 mg/kg IP once a day for 35 days. The method, then:
(§8) C57BL/6 mice (n=61) were purchased from Samtako bio korea Co. Ltd (Osan, Korea.) Mice were housed in the room which offers 12 hours light/dark cycle with a temperature of 20˜22° C.
as §1, §2
(§9) In the present invention, in order to confirm whether the compound of Example 124 (compound 124) improves the motor abnormalities found in rotenone-induced Parkinson's disease model mice, rota-rod test, pole test, and foot printing assay test were performed.
Foot printing assay was performed using the Parkinson's disease model mice of Biological Experiment Example 1 as follows. Mice paws were dipped with non-toxic water paints (forelimbs in green and hind limbs in blue). Mice were placed in the corner of the enclosed maze with white paper lined through the maze and allowed to walk along the maze freely. […] Fore limb-stride length and hind limb-stride length were measured using ImageJ (NIH).

Assay [7] concerns Amyloid-beta precursor protein (APP). Put plainly: Western blot of APP in Alzheimer's disease in vitro model (SH-SY5Y cells transfected with pcDNA3-APPswe). The assay is classed as cell-based, human. Particulars: Example 124 100 uM, harvested 24 h after treatment, FIG. 7. The method, then:
In the present invention, the amyloid-beta precursor protein (APP) reduction effect of the compound of Example 124 in an In Vitro model of Alzheimer's disease (AD) was confirmed.
SH-SY5Y, a human neuroblastoma cell line, was used, and when the pcDNA3-APPswe vector was transfected, these cells generate an AD-inducing APP.
SH-SY5Y cells were incubated in DMEM with 10% FBS and 1% penicillin/streptomycin. 500,000 cells/well was plated in a 6 well plate and transfected 24 h later.
Cells were transfected with pcDNA3-APPswe or pcDNA3 vectors using Lipofectamine 2000 (Invitrogen). After 4 h incubation, the transfection mixture (Lipofectamine+Vector) was replaced with 10% FBS in DMEM. compound of Example 124 (100 uM) or vehicle was treated in 20 h after transfection.
Cells were harvested 24 h after the compound of Example 124 treatments. Cells were washed twice with ice-cold PBS and lysed in RIPA buffer (1% Triton X-100, 0.5% deoxycholic acid, 0.2% SDS, 150 mM sodium chloride, 2 mM EDTA) with 1 mM PMSF, 2 ug/ml aprotinin, 10 ug/ml leupeptin, and 10 mM sodium fluoride.
The lysate was passed several times through a 26½-gauge syringe needle and centrifuged at 16,200*g for 20 min. The supernatant was quantified with the Bradford assay. 30 ug of protein samples, separated by SDS-PAGE, were transferred to the PVDF membrane. […]

The test system of assay [8] is Phosphorylated alpha-synuclein (s129). Nature of the assay: Double immunostaining for TH and p-α-synuclein, inclusions in cell bodies of TH+ neurons of rotenone mice. Conditions: rotenone 30 mg/kg orally, Example 124 40 mg/kg IP once a day for 35 days; FIG. 5(A-B). The assay is classed as in vivo, C57BL/6 mice. The method, then: as §1, §2
Specifically, mice of Biological Experiment Example 1 were anesthetized with sevoflurane and perfused with PBS (phosphate-buffered saline). After perfusion, dissected the left hemisphere of the brain from the mice and fixed the right hemisphere brain with 4% PFA for 1 day [Shin, S. J., et al., Jowiseungchungtang Inhibits Amyloid-beta Aggregation and Amyloid-beta-Mediated Pathology in 5XFADMice. Int J Mol Sci, 2018. 19(12).]. The frozen brain was sectioned in the coronal way (30 μm thick) using a cryostat (Leica CM3000, Leica Microsystems, Nussloch, Germany). Sections were stored at deep freezer (−70° C.) until the immunohistochemistry analysis starts.
In all immunofluorescence labeling procedures, rinsed off the brain sections and blocked the tissues with cold PBST (0.1% Triton X-100 in PBS) containing 5% BSA and 5% goat serum at room temperature. […]

Assay [9] has as its system rotenone-induced Parkinson's disease model mice. Nature of the assay: Pole test in rotenone-induced Parkinson's disease model mice. The assay is classed as in vivo, C57BL/6 mice. Conditions: rotenone 30 mg/kg orally, Example 124 40 mg/kg IP once a day for 35 days; vs rotenone group; not significantly; FIG. 1(B-C). The method, then: as §8, §1, §2, §9
Pole test was performed using the Parkinson's disease model mice of Biological Experiment Example 1 as follows. […] Each trial was recorded through the camera locating in front of the pole. The time mice turned upside down (head down) and the time it completely climbs down the pole was measured through a recorded video file manually by using the software Boris. Results from manually counted files were scored and presented.

Assay [10] concerns TH+ neurons (dopaminergic neurons). Put plainly: Immunohistochemistry with tyrosine hydroxylase (TH) antibody, counting of TH+ neurons in rotenone mice. In kind it is in vivo, C57BL/6 mice. Particulars: rotenone 30 mg/kg orally, Example 124 40 mg/kg IP once a day for 35 days, FIG. 3(A-B). The method, then:
as §1, §2
Dopaminergic neuron loss has been implicated in motor dysfunction in Parkinson's disease. In the present invention, stained the striatum with Tyrosine hydroxylase (TH) antibody to check out whether compound of Example 124 prevents the TH+ neuron cell death by rotenone.
as §5
All the images were taken using a fluorescence microscope (Leica DM LB2). To determine the loss of TH positive neurons and the prevention effect of the compound of Example 124 in the striatum, TH+ neurons were counted by using a cell counter plugin from ImageJ software (NIH).
Immunofluorescence images were analyzed using one-way ANOVA and post hoc analysis using Tukey's post hoc test (GraphPad Prism). […]

As for `CO[C@@H](c1ccccc1Cl)[C@H](C)OC(N)=O` [Example 124, 1-(2-chlorophenyl)-(S)-1-methoxypropyl-(S)-2-carbamate], in [1], the “phosphorylation of tau protein (p-Tau s262)” value is “decreased”. Besides, the “tyrosine hydroxylase (TH) expression (TH/B-actin)” value in assay [2] was “increased”. In addition, in assay [3], the α-tubulin acetylation levels entry was “increase”. Further, the amount of amyloid-beta entry in the assay with Amyloid-beta (Aβ) [4] is recorded as “decreased”. The “activation of astrocytes by rotenone (GFAP intensity)” value in the assay with GFAP-positive astrocytes is listed as “attenuated”. Also, the “efficacy in microglia compared with astrocytes (relative Iba-1 and GFAP intensity)” value in the assay on Iba-1-positive microglia (FIG. 6(C-D)) was “more dramatic and obvious in microglia than in astrocytes”. Also, the “activation of microglia by rotenone (Iba-1 intensity)” value with Iba-1-positive microglia (rotenone 30 mg/kg orally, Example 124 40 mg/kg IP once a day for 35 days, FIG. 6) was “attenuated”. The “amount of endogenous amyloid-beta (Aβ intensity)” value in the assay with Amyloid-beta (Aβ) [5] was “reduced”. In addition, in [6] (FIG. 2(A)), the “stride length of forepaw” value is “ameliorated”. The “stride length of hind paw” value in assay [6] (FIG. 2(B)) is given as “ameliorated”. Besides, the “amount of APP protein (APP/B-actin)” value in assay [7] is “decreased”. In addition, in [8], the “accumulation of α-synuclein in the soma (p-α-synuclein inclusions in TH+ neurons)” value is reported as “dramatically decreased”. Further, in [9], the “pole test: time climbing down the pole / score” value is “slightly attenuated”. Further, the “rotenone-induced TH+ cell death (number of TH positive cells)” value in assay [10] was “significantly blocked”.

The values are drawn from patent US11931332B2, “Phenyl alkyl carbamate compounds for use in preventing or treating neurodegenerative disease” (priority 2020, dated 2024).
